Legend:
MDA-MB-231 = assay: Matrigel invasion assay (modified Boyden chamber), MDA-MB-231; type: cell-based; settings: cells treated 48 h
Procedure: (§1) The in vitro invasiveness of 4910, 5310 and U87 glioma cells and MDAMB231 and ZR71 breast cancer cells in the presence of specified concentrations of compounds were assessed using a modified Boyden chamber assay. Cells were treated with these compounds for 48 h. 1x10^6 cells were suspended in 600µl of serum-free medium supplemented with 0.2% BSA and placed in the upper compartment of the transwell chambers (Coming Costar Fischer Scientific Cat #07-200-158, Pittsburgh PA) coated with Matrigel (0.7 mg/ml). The lower compartment of the chamber was filled with 200 µl of serum medium and the cells were allowed to migrate for 24 h. After incubation, the cells were fixed and stained with Hema-3 and quantified as previously described (Mohanam et al. 1993). The migrated cells were imaged microscopically to determine the reduction in invasiveness induced by the compounds of this invention.
(§2) The in vitro invasiveness of 4910, 5310 and U87 glioma cells and MDAMB231 and ZR71 breast cancer cells in the presence of specified concentrations of compounds were assessed using a modified Boyden chamber assay. Cells were treated with these compounds for 48 h.

4910 = assay: Matrigel invasion assay (modified Boyden chamber), 4910; type: cell-based, human; settings: cells treated 48 h
Procedure: as §1, §2

Baf3T315I = assay: In vivo anti-leukemic activity, blast cell count in blood smears, Baf3T315I implanted nude mice; settings: Imatinib 10mg/kg, AN019 20mg/kg, AN024 20mg/kg, oral gavage or ip from day 15; up to day 42
Excerpt: (§3) Blood smears were obtained via the tail vein or via the femoral vein every 6th day and blast cells counted and graphically represented.
(§4) Abdominal swelling and decrease in activity was monitored daily, blood smear taken via the tail vein or the femoral vein every 6th day and H&E stained as per standard protocols. 42 days after implantation, mice were sacrificed and spleens harvested.
(§5) Nude mice were intraperitoneally implanted with Baf3 mutant cells (wt, T315I, M351T or E255K). […] Blood was drawn from the femoral vein or tail vein every 6th day and blast cell count determined and graphically represented.

[1] = test system: K562 luciferase expressing cells; assay: Leukemic survival study, K562 luciferase expressing cells implanted intraperitoneally; type: in vivo, nude mice
[2] = test system: Glioma xenograft cells 4910; assay: In vitro angiogenic assay (conditioned media on human dermal endothelial cells), 4910; type: cell-based; settings: 4910 cells, with and without radiation
Procedure: (§6) The in vitro angiogenesis of 4910, 5310 and U87 glioma cells and MDAMB231 and ZR71 breast cancer cells in the presence of specified concentrations of compounds were determined as follows, cells (2x10^4/well) were seeded in 8-well chamber slides and were treated with various concentrations of test compounds. After a 24 h incubation period, the conditioned media was removed and added to a 4x 10^4 human dermal endothelial cell (monolayer in 8-well chamber slides) and the human dermal endothelial cells were allowed to grow for 72 h. Cells were then fixed in 3.7% formaldehyde and stained with H&E and photographed.

5310 cells = assay: In vitro angiogenic assay (conditioned media on human dermal endothelial cells), 5310; type: cell-based; settings: control conditions and after radiation
Procedure: as §6

Baf3E255K = assay: In vivo anti-leukemic activity, blast cell count in blood smears, Baf3E255K implanted nude mice; settings: Imatinib 10mg/kg, AN019 20mg/kg, AN024 20mg/kg, oral gavage or ip from day 15; up to day 42
Excerpt: as §3, §4, §5

ZR-71 = assay: Matrigel invasion assay (modified Boyden chamber), ZR-71; type: cell-based; settings: cells treated 48 h
Procedure: as §1, §2

[3] = test system: 4910, 5310 and U87 glioma cells and MDAMB231 and ZR71 breast cancer cells; assay: Western blot analysis for pAKT and pERK (cell line not specified); type: cell-based; settings: with and without radiation
Procedure: Western blot analysis of 4910, 5310 and U87 glioma cells and MDAMB231 and ZR71 breast cancer cells in the presence of specified concentrations of compounds were assessed as per standard protocols. Cells were treated with AN019, AN024 or Temozolomide at the specified concentrations. 24h after treatment, cells were collected and cell lysates extracted. Equal quantities of proteins were fractionated by SDS-PAGE. The fractionated proteins were blotted on to nylon membranes and immunoprobed for AKT, ERK and Pi3k. Breast cancer cell protein isolates were additionally immunoprobed for EGFR, ErbB1, ErbB2 and ErbB3.

Baf3Wt = assay: In vivo anti-leukemic activity, blast cell count in blood smears, Baf3Wt implanted nude mice; settings: Imatinib 10mg/kg, AN019 20mg/kg, AN024 20mg/kg, oral gavage or ip from day 15; up to day 42
Excerpt: as §3, §4, §5

[4] = test system: K562 luc human leukemia cells; assay: Drug effectiveness (De) from in vivo luciferase studies; parameters: species or system nude mice
Excerpt: [formula] Where: • Σalive = total number of mice alive per concentration at the end of experiment times photon count, Eluc = total number of mice alive showing luciferase expression per concentration at end of experiment and c represents control untreated animals times photon count and ∑c-initial represents the initial number of animals in control at start of experiment times photon count.

U87 = assay: Matrigel invasion assay (modified Boyden chamber), U87; type: cell-based; settings: cells treated 48 h
Procedure: as §1, §2

ZR-71 cells = assay: In vitro angiogenic assay (conditioned media on human dermal endothelial cells), ZR-71; type: cell-based
Procedure: as §6

K562 cells = assay: Anti-CML activity in nude mice implanted with K562 cells (leukemia growth index, LGI)
K5621uc cells = assay: Drug temporal penetrance (Tp) after stopping drug treatment; type: in vivo, nude mice; settings: AN019 20mg/kg, AN024 20mg/kg, Imatinib 10mg/kg, daily ip from day 15, stopped on day 35, imaged till day 45
Procedure: The temporal penetrance was calculated applying the following equation, Tp=. (((P)/(n))a -((P)/(n))ter)/(((P)/(n))a -((P)/(n))b) [formula]
Where: • P=photon counts at day 'a', day 'ter', or day 'b' where 'a' is the day when drug treatment was stopped and 'ter' is the day when the experiment was terminated and 'b' is the day where P is minimum after day a but before day 'ter'. • n=number of animals alive when P was measured.
The animals were imaged at 6 day intervals post transplantation. […] Drug treatment was stopped on day 35 and animals were imaged till day 45, and calculated as described in methods.

MDA-MB-231 cells = assay: In vitro angiogenic assay (conditioned media on human dermal endothelial cells), MDA-MB-231; type: cell-based; settings: control condition and after radiation
Procedure: as §6

Cc1ccc(NC(=O)c2cc(C(F)(F)F)cc(C(F)(F)F)c2)cc1Nc1nccc(-c2cccnc2)n1 [AN019, (3,5-bis trifluoromethyl)-N-[4-methyl-3-(4-pyridin-3yl-pyrimidin-2ylamino)-phenyl]-benzamide]
+Radiation % Invasion (MDA-MB-231; MDA-MB-231, with radiation): 15%
-Radiation % Invasion (MDA-MB-231; MDA-MB-231, without radiation): 45%
+Radiation % Invasion (4910; 4910, with radiation): 15%
-Radiation % Invasion (4910; 4910, without radiation): 42%
blast cell count in blood smears (Baf3T315I): significant decrease in blast cell count
curative effect after withdrawal of drug treatment (animals cured at day 58) ([1]; drug treatment stopped at day 42, based on luminescence (Fig. 20)): continued to show curative effect
Blast cell count from blood smears after withdrawal of drug treatment ([1]; drug treatment withdrawn on day 42 (Fig. 21)): showed effectiveness after withdrawal of drug treatment
mortality ([1]; treatment from day 15 till day 42, then withdrawn, AN024 death determined to be other than leukemia): did not show any mortality
animals showing no signs of leukemia / complete absence of leukemic symptoms ([1]; treatment from day 15 till day 42, then withdrawn, AN024 on day 55): 7 of the 10 animals
inhibition of angiogenesis [2]: inhibition of angiogenesis similar to MDA-MB-231 cells with an increase in angiogenic inhibition after radiation
inhibition of angiogenesis (5310 cells): inhibition of angiogenesis was greater in control conditions than after radiation treatment
blast cell count in blood smears (Baf3E255K): significant decrease in blast cell count
+Radiation % Invasion (ZR-71; ZR-71, with radiation): 19%
-Radiation % Invasion (ZR-71; ZR-71, without radiation): 33%
levels of pERK [3]: reduced significantly
blast cell count in blood smears (Baf3Wt): complete regression of leukemic blast cells
De (drug effectiveness) ([4]; 5mg/kg): 25.82%
De (drug effectiveness) ([4]; 10mg/kg): 78.20%
De (drug effectiveness) ([4]; 20mg/kg): 83.40%
De (drug effectiveness) ([4]; 40mg/kg): 85.20%
+Radiation % Invasion (U87; U87, with radiation): 18%
-Radiation % Invasion (U87; U87, without radiation): 18%
inhibition of angiogenesis (ZR-71 cells): complete inhibition of angiogenesis
physiological, phenotypic or behavioral abnormality (K562 cells; K562 implanted nude mice, ip 10mg/kg): no abnormal physiological, phenotypic or behavioral abnormality
LGI after initiation of drug treatment (time course) (K562 cells; daily ip injections of 10mg/kg from day 15, blood drawn every 6th day): steady decline in LGI
Tp (temporal penetrance) (K5621uc cells): 2.0
inhibition of angiogenesis (MDA-MB-231 cells): a slight inhibition was observed in both control and radiation treatments

From patent publication EP2265599B1, “CRYSTAL FORM OF PHENYLAMINOPYRIMIDINE DERIVATIVE” (Natco Pharma Limited, priority 2008, dated 2009)
